Test results taken from patent US9796711B2, “Substituted pyrazolo[3,4-b]pyridin-6-carboxylic acids and method of use” (AbbVie S.àr.l., priority 2015, dated 2017).

What was measured:
ΔF508-CFTR [1] = target: T1, ΔF508-CFTR (Homo sapiens, UniProt P13569, DEL508-508); test: CFTR cell surface levels using HRP-tagged ΔF508-CFTR expressing CFBE cells, in the presence of a co-corrector; assay type: cell-based; settings: HRP-tagged ΔF508-CFTR expressing CFBE cells, in the presence of 3 μM co-corrector; for EC50: read-out: EC50
T1 construct: host or cells: CFBE41o-, doxycycline-inducible
Procedure, shortened: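 Cells were seeded with 0.5 μg/mL doxycycline and held 68 h at 37 °C. Test compounds plus 3 μM co-corrector (final 0.1% DMSO) were then added for 20 h at 33 °C. Washed cells received HRP substrate, and luminescence was normalized between DMSO and 3 μM co-corrector controls.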

ΔF508-CFTR [2] = target: T1, ΔF508-CFTR; test: CFTR cell surface levels using HRP-tagged ΔF508-CFTR expressing CFBE cells, intrinsic corrector capacity; assay type: cell-based; settings: HRP-tagged ΔF508-CFTR expressing CFBE cells, intrinsic corrector capacity (no co-corrector), 33° C., 20 hours; for EC50: read-out: EC50
Procedure, shortened: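 Here the cells express ΔF508-CFTR with horseradish peroxidase inserted in extracellular loop 4, so only rescued channel at the surface gives luminescent signal. Compounds act on their own, 20 h at the reduced temperature of 33 °C; values are percent activity relative to DMSO and a 3 μM corrector.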

T1 sequence (P13569 with tags, fused parts or gaps DEL508-508): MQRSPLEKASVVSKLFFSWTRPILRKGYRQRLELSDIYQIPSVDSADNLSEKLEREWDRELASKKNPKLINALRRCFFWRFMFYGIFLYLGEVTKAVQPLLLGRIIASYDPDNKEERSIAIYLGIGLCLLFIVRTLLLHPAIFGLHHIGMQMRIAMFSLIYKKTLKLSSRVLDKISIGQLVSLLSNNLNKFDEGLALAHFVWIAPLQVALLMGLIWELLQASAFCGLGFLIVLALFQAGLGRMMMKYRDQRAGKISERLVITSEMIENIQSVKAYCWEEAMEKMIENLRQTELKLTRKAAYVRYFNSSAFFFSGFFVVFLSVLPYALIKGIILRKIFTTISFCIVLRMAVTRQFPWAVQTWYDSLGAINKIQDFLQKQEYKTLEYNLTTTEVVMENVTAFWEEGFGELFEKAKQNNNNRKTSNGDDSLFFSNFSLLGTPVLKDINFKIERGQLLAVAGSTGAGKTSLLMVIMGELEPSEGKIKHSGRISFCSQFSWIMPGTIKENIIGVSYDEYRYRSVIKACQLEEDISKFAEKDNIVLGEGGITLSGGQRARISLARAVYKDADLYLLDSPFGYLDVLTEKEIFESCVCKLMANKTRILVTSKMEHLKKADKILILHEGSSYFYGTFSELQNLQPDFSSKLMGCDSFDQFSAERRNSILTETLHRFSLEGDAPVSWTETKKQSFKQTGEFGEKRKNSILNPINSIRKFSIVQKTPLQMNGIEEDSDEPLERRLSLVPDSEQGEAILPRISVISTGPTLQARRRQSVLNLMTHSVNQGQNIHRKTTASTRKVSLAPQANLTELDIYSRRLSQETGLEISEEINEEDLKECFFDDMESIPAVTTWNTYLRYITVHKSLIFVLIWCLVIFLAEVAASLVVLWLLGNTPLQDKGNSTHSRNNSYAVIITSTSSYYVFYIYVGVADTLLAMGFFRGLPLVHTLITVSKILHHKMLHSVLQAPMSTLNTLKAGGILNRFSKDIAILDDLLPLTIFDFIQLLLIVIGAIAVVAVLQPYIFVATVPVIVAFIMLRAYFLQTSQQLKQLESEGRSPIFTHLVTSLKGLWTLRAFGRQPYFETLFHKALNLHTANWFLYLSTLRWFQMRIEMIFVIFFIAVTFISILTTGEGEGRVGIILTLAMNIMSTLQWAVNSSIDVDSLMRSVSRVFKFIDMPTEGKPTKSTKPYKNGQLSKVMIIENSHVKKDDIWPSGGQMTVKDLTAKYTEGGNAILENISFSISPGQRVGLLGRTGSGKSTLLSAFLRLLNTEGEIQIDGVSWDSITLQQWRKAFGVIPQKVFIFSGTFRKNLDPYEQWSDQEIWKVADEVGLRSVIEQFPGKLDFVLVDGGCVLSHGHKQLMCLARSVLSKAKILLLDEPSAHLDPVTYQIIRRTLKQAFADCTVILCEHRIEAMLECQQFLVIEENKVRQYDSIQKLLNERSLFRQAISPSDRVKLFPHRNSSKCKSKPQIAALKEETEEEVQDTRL

Compound | % Activation (ΔF508-CFTR [1]) [%] | EC50 (ΔF508-CFTR [1]) [nM] | % Activation (ΔF508-CFTR [2]) [%] | EC50 (ΔF508-CFTR [2]) [nM]
O=C(O)c1cc(N2CC(N3CCCCC3)C2)c2c(C3CCC3)nn(-c3ccccc3)c2n1 [compound 466, 3-cyclobutyl-1-phenyl-4-[3-(piperidin-1-yl)azetidin-1-yl]-1H-pyrazolo[3,4-b]pyridine-6-carboxylic acid] | 271.1 | 1290 | 116.25 | 2330
CS(=O)(=O)[C@@H]1CCN(c2cc(C(=O)O)nc3c2c(C2CCC2)nn3-c2ccccc2)C1 [compound 467, 3-cyclobutyl-4-[(3R)-3-(methanesulfonyl)pyrrolidin-1-yl]-1-phenyl-1H-pyrazolo[3,4-b]pyridine-6-carboxylic acid] | 274.35 | 3340 | 97.95 | 3340
COC1CCCN(c2cc(C(=O)O)nc3c2c(C2CCC2)nn3-c2ccccc2)C1 (stereo not shown) [compound 468, 3-cyclobutyl-4-(3-methoxypiperidin-1-yl)-1-phenyl-1H-pyrazolo[3,4-b]pyridine-6-carboxylic acid] | 297.2 | 371 | 120.3 | 618
CC(C)N1CNC(=O)C12CCN(c1cc(C(=O)O)nc3c1c(C1CCC1)nn3-c1ccccc1)CC2 [compound 469, 3-cyclobutyl-4-[4-oxo-1-(propan-2-yl)-1,3,8-triazaspiro[4.5]decan-8-yl]-1-phenyl-1H-pyrazolo[3,4-b]pyridine-6-carboxylic acid] | 360.3 | 716 | 198.95 | 1120
O=C(O)c1cc(N2CCN(CC(F)(F)F)CC2)c2c(C3CCC3)nn(-c3ccccc3)c2n1 [compound 470, 3-cyclobutyl-1-phenyl-4-[4-(2,2,2-trifluoroethyl)piperazin-1-yl]-1H-pyrazolo[3,4-b]pyridine-6-carboxylic acid] | 311.25 | 427 | 147.5 | 736
O=C(O)c1cc(N2CCN(CCCO)CC2)c2c(C3CCC3)nn(-c3ccccc3)c2n1 [compound 471, 3-cyclobutyl-4-[4-(3-hydroxypropyl)piperazin-1-yl]-1-phenyl-1H-pyrazolo[3 ,4-b]pyridine-6-carboxylic acid] | 259.9 | 2990 | 106.45 | 3340
O=C(O)c1cc(N2CCN(CC(=O)N3CCCC3)CC2)c2c(C3CCC3)nn(-c3ccccc3)c2n1 [compound 472, 3-cyclobutyl-4-{4-[2-oxo-2-(pyrrolidin-1-yl)ethyl]piperazin-1-yl}-1-phenyl-1H-pyrazolo[3,4-b]pyridine-6-carboxylic acid] | 292.55 | 1380 | 144 | 2490
O=C(O)c1cc(N2CCCCCC2)c2c(C3CCC3)nn(-c3ccccc3)c2n1 [compound 473, 4-(azepan-1-yl)-3-cyclobutyl-1-phenyl-1H-pyrazolo[3,4-b]pyridine-6-carboxylic acid] | 280.9 | 545 | 102.9 | 1020
O=C(O)c1cc(N2CCN(CC(=O)N3CCOCC3)CC2)c2c(C3CCC3)nn(-c3ccccc3)c2n1 [compound 474, 3-cyclobutyl-4-{4-[2-(morpholin-4-yl)-2-oxoethyl]piperazin-1-yl}-1-phenyl-1H-pyrazolo[3,4-b]pyridine-6-carboxylic acid] | 301.35 | 2250 | 125.3 | 3340
O=C(O)c1cc(N2CCN3C[C@H](O)C[C@H]3C2)c2c(C3CCC3)nn(-c3ccccc3)c2n1 [compound 475, 3-cyclobutyl-4-[(7R,8aS)-7-hydroxyhexahydropyrrolo[1,2-a]pyrazin-2(1H)-yl]-1-phenyl-1H-pyrazolo[3,4-b]pyridine-6-carboxylic acid] | 163.35 | 2720 | 35.755 | 6670
